{
  "source": "patent US12116356B2",
  "about": "“N-heterocyclic five-membered ring-containing capsid protein assembly inhibitor, pharmaceutical composition thereof, and use thereof” (CHIA TAI TIANQING PHARMACEUTICAL GROUP CO., LTD., priority 2018, dated 2024)",
  "key": {"[1]": {"assay": "In vivo pharmacokinetics (PK) study in rats", "parameters": "species or system SD rats", "settings": "rat"}, "[2]": {"assay": "In vivo pharmacokinetic (PK) study in Beagle dog", "parameters": "species or system Beagle dogs", "method": "Beagle dogs, weighing 9 to 11 kg, were randomly divided into two groups of 3 dogs each, compound 12 was given by intragastric administration to each group at a dose of 5 mg/kg.\nThe test animals (Beagle dogs) were fasted for 12 hours before the administration, and fed 4 hours after the administration. They were free to access water before and after the experiment.\nAfter the intragastric administration, about 0.5 mL of whole blood was collected from the veins of the left forelimb in an EDTA-K2 anticoagulated vacuum blood collection tube at 0 min, 15 min, 30 min, 1 h, 2 h, 4 h, 6 h, 8 h, 10 h, 24 h, 48 h, and 72 h. Within 30 minutes after collection, the plasma was separated by centrifugation at 4° C. and 4000 rpm for 10 minutes. Immediately after collecting all plasma, it was stored at −20° C. for testing.\n50 μL of the plasma sample to be tested and standard curve sample were pipetted, and then thereto was added 500 μL of an acetonitrile solution containing an internal standard (diazepam 20 mg/mL). The resulting mixture was oscillated and mixed uniformly for 5 min, and then centrifugated at 12000 rpm for 10 min, 75 μL of the supernatant was pipetted, and 75 μL of ultrapure water was added for dilution and mixed evenly. 1 μL of the resulting solution was pipetted for LC/MS/MS determination."}, "[3]": {"assay": "Solubility in PBS buffer at pH 7.4", "assay_type": "physicochemical", "settings": "aqueous buffer, PBS buffer pH 7.4, 25° C.", "method": "[…] After standing at 25° C. for 16 hours, the system was centrifugated (12000 rpm, room temperature) for 10 min. 20 μL of the supernatant was taken out, and the reaction was terminated with 400 μL of acetonitrile containing an internal standard (diazepam 20 ng/mL). 30 μL of the supernatant was pipetted, and 150 μL of 50% acetonitrile aqueous solution was added thereto for dilution and mixed uniformly. 0.5 μL of the resulting solution was injected for analysis."}, "[4]": {"assay": "Stability of human liver microsomes in vitro", "assay_type": "in vitro ADME", "method": "300 μL of a final incubation system contains 30 μL of liver microsomes (protein concentration: 0.15 mg/mL), 30 μL NADPH+MgCl2, 3 μL substrate (formulated with acetonitrile), and 237 μL PBS buffer. Duplicate incubation systems of 0.3 mL each were formulated for each species. A total volume of 270 μL of a uniformly mixed solution of the substrate and the enzyme was formulated in each tube, the solution and NADPH were pre-incubated at 37° C. for 5 minutes, respectively. Then 30 μL of the mixed solution of NADPH+MgCl2 was added for reaction. 50 μL of the reaction solution was taken out at 0, 10, 30, and 60 mins, and the reaction was terminated with 300 μL of ice acetonitrile containing an internal standard.\nSample pre-treatment: To 50 μL of the incubated sample was added 300 μL of ice acetonitrile containing diazepam as an internal standard and then precipitated. After vortexing for 5 minutes, the sample was centrifugated (12000 rpm, 4° C.) for 10 minutes. 75 μL of the supernatant was pipetted into a 96-well plate, and then diluted with 75 μL ultrapure water and mixed uniformly. 0.5 μL of the resulting solution was injected and analyzed by LC-MS/MS."}, "[5]": {"settings": "plasma, Beagle dogs, PO 5 mg/kg"}},
  "data": [
    {"compound": "Cc1c(C(=O)Nc2ccc(F)c(C#N)c2)c(C)n(C)c1C(=O)C(=O)N[C@@H](C)C(F)(F)F", "note": "[Example 12]", "values": [
      {"measurement": "half-life", "setting": "[1]; SD, in vivo, iv, 5 mg/kg", "result": 205, "unit": "min"},
      {"measurement": "AUC(0-inf)", "setting": "[1]; plasma, SD rats, IV 5 mg/kg", "result": 27100, "unit": "ng·h/mL"},
      {"measurement": "Cmax", "setting": "[1]; plasma, SD rats, IV 5 mg/kg", "result": 6270, "unit": "ng/mL"},
      {"measurement": "clearance", "setting": "[1]; plasma, SD rats, IV 5 mg/kg", "result": 3.1, "unit": "mL/min/kg"},
      {"measurement": "AUC(0-t)", "setting": "[1]; plasma, SD rats, IV 5 mg/kg, read-out: AUC(0-48 h)", "result": 27100, "unit": "ng·h/mL"},
      {"measurement": "Vd", "setting": "[1]; plasma, SD rats, IV 5 mg/kg, read-out: Vz", "result": 0.914, "unit": "L/kg"},
      {"measurement": "half-life", "setting": "[2]; Beagle, in vivo, po, 5 mg/kg", "result": 4.38, "unit": "days"},
      {"measurement": "AUC(0-inf)", "setting": "[2]; [5]", "result": 162, "unit": "µg·h/mL"},
      {"measurement": "Cmax", "setting": "[2]; [5]", "result": 1280, "unit": "ng/mL"},
      {"measurement": "Tmax", "setting": "[2]; [5]", "result": 1.67, "unit": "h"},
      {"measurement": "AUC(0-t)", "setting": "[2]; plasma, Beagle dogs, PO 5 mg/kg, read-out: AUC(0-72 h)", "result": 61900, "unit": "ng·h/mL"},
      {"measurement": "MRT last", "setting": "[2]; plasma, Beagle dogs, PO 5 mg/kg, read-out: MRT(0-t)", "result": 32.9, "unit": "h"},
      {"measurement": "solubility at 16 h", "setting": "[3]", "result": 8.1, "unit": "µM"},
      {"measurement": "Remaining (%) at 60 min", "setting": "[4]", "result": 78.8, "unit": "%"}
    ]}
  ]
}
